Experiment [1] deals with T1, IRAK4 protein in THP-1 cells (Homo sapiens, UniProt Q9NWZ3).
T1 construct: endogenous in cells; host or cells: THP-1
T1 sequence (Q9NWZ3 1-460): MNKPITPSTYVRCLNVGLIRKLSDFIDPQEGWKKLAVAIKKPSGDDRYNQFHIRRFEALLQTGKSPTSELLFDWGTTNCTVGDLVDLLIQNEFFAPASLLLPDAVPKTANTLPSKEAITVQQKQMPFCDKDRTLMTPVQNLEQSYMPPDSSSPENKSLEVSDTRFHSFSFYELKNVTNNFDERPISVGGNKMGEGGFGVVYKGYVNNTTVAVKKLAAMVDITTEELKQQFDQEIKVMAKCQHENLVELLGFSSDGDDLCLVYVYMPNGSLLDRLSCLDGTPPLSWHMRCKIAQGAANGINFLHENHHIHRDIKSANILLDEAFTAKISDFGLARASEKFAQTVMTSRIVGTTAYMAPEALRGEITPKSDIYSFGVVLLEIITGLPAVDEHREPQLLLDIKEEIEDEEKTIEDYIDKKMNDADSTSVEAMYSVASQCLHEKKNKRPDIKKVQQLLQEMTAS
The experiment is described as follows: Degradation of IRAK4 in THP-1 cells (Western blot). The experiment is classed as cell-based. Conditions: 24 hours, compound 1-3000 nM. Summed up:
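THP-1 cells (5×10^5/well) treated 24 h with compound at 1–3000 nM final. IRAK4 in lysates quantified by Western blot, normalized to internal reference and compared with control to give degradation rate; DC50 and Dmax from nonlinear fit of log concentration.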
(In general: A western blot detects proteins with antibodies after separation by electrophoresis.)

The next experiment addresses T2, IRAK4 kinase (Homo sapiens, UniProt Q9NWZ3).
T2 sequence (Q9NWZ3 1-460): T1 sequence (Q9NWZ3 1-460)
The experiment is described as follows: IRAK4 kinase activity test (KinEASE-STK S1 HTRF kit). The format is biochemical. As to conditions: 2.5 nM kinase, 1 μM biotinylated polypeptide substrate, 7 μM ATP, 37° C. 120 min. The essentials: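 Compound in DMSO, serially diluted to 10000–0.038 nM final, incubated with 2.5 nM kinase, 1 μM biotinylated peptide substrate and 7 μM ATP at 37° C for 120 min. Eu-anti-phospho-Ser/Thr antibody plus streptavidin-XL665 stopped the reaction (1 h RT). HTRF 665/620 nm ratio gave % inhibition versus control; IC50 from nonlinear log-concentration fit.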

The subject of experiment [2] is Interleukin-6 (IL-6) in LPS-induced human PBMC. The experiment in a line: Cytokine secretion of LPS-induced human PBMC, IL-6 AlphaLISA detection. The format is cell-based. Conditions: inhibition of IL-6, compound 1 hour or 20 hours, then LPS 100 ng/mL 5 hours. How it is done: Frozen human PBMC (Milestone, PB010C) was resuspended to RPMI 1640 medium (Gibco, A1049101) after resuscitation, supplemented with 10% fetal bovine serum (Gibco, 10099141), 100 U/mL penicillin and 100 μg/mL streptomycin (Gibco, 15140122). On the same day, 150 μL of PBMC was spread in each well of a 96-well transparent cell plate (Labserv, 310109008), so that the cell density was 2×10^5 cells/well. Then 50 μL diluted compound solution was added to the corresponding cell-covered wells to make the final concentration of the compound in the range of 0.026-10000 nM. The final concentration of DMSO was 0.25%. After the drug-treated cell plate was cultured at 37° C. for 1 hour or 20 hours in a 5% CO2 incubator, 10 μL LPS (0111:B4) (Sigma, L4391) was added with a final concentration of 100 ng/mL. The cell plate was again placed in a 5% CO2 incubator at 37° C. for 5 hours, centrifuged at 2000 rpm for 10 minutes, and 100 μL cell supernatant was taken from each well and transferred to a new 96-well transparent cell plate for cytokine concentration test, which was frozen at −80° C. to be tested.
The concentration of IL-6 in the supernatant of LPS-induced human PBMC cells was determined using interleukin-6 (IL-6) AlphaLISA detection kit (PerkinElmer, AL223 C).
According to the product instructions, IL-6 standard solutions with different concentrations were prepared in the concentration range of […]. 2 μL of IL-6 standard solution at various concentrations and the cell supernatant sample to be tested were taken, respectively added to white 384 well plates (PerkinElmer, 6007299), then a mixed solution of 8 μL of 5× anti-IL-6 receptor beads (final concentration: 10 μg/mL) and biotin-labeled anti-IL-6 antibody (final concentration 1 nM) was added to each well, and incubated at 23° C. for 60 minutes. Finally, 10 μL of 2× streptavidin-labeled donor beads (final concentration: 40 μg/mL) were added to each well and incubated at 23° C. for 30 minutes in the absent of light. After the incubation, the AlphaLISA signal value was determined in the AlphaScreen standard setting mode on the microplate reader EnVision(PerkinElmer, 2105). The standard curve was drawn by the AlphaLISA signal value of each concentration IL-6 standard solution, and then based on the corresponding concentration on the standard curve for the AlphaLISA signal value of the sample to be tested, the IL-6 concentration of each cell lysis supernatant was determined. Compared with the IL-6 concentration of the control group, the inhibition rate of the compound at each concentration was calculated, and then IC50 value of the compound was calculated by fitting the nonlinear curve with the logarithmic concentration-inhibition rate by GraphPad Prism 7.
(Alpha assays give light when donor and acceptor beads are brought close together.)

On to `COc1cc2nn(C3CCN(CCN4CCC5(CC4)CCN(C(=O)c4ccc(OC)c(N6CCC(=O)NC6=O)c4)CC5)CC3)cc2cc1NC(=O)c1cccc(C(F)(F)F)n1` [Example 1, N-(2-(1-(2-(9-(3-(2,4-dioxotetrahydropyrimidin-1 (2H)-yl)-4-methoxybenzoyl)-3,9-diazaspiro[5.5]undec-3-yl)ethyl)piperidin-4-yl)-6-methoxy-2H-indazol-5-yl)-6-(trifluoromethyl)-2-pyridinecarboxamide], for which, in experiment [1], the half-maximal degradation concentration (DC50) turned out to be 3 nM and the Dmax is 94.6%. Besides, on IRAK4 kinase, 2.5 nM corresponded to half-maximal inhibition (IC50). The IC50 in experiment [2] was 4.9 nM.
`CC(C)(O)c1cc2nn(C3CCN(CCC4CCC5(CC4)CCN(C(=O)c4ccc(Cl)c(N6CCC(=O)NC6=O)c4)CC5)CC3)cc2cc1NC(=O)c1cccc(C(F)(F)F)n1` [Example 28, N-(2-(1-(2-(3-(4-chloro-3-(2,4-dioxotetrahydro-pyrimidin-1 (2H)-yl)benzoyl)-3-azaspiro [5.5]undec-9-yl)ethyl)piperidin-4-yl)-6-(2-hydroxyprop-2-yl)-2H-indazol-5-yl)-6-(trifluoro-methyl) pyridinecarbox-amide]: in experiment [1], the DC50 was 0.8 nM and the maximal degradation (Dmax) amounted to 99.4%. The compound also registered an IC50 against IRAK4 kinase of 16.2 nM. The compound also registered a concentration for half-maximal inhibition (IC50) in experiment [2] of 4.7 nM.
The matching figures for `COc1cc2nn(C3CCN(CC4CCC5(CC4)CCN(C(=O)c4ccc(Cl)c(N6CCC(=O)NC6=O)c4)CC5)CC3)cc2cc1NC(=O)c1cccc(C(F)(F)F)n1` [Example 32]: 5.1 nM, 96.9%, 28.5 nM and 9.7 nM.
For `CC(C)(O)c1cc2nn(C3CCN(CC4CCC5(CC4)CCN(C(=O)c4ccc(F)c(C6CCC(=O)NC6=O)c4)CC5)CC3)cc2cc1NC(=O)c1cccc(C(F)(F)F)n1` (stereo not shown) [Example 41, N-(2-(1-((3-(3-(2,6-dioxopiperidin-3-yl)-4-fluoro-benzoyl)-3-azaspiro [5.5]undec-9-yl)methyl)piperidin-4-yl)-6-(2-hydroxyprop-2-yl)-2H-inda-zol-5-yl)-6-(triflu-oromethyl) pyridinecarbox-amide], in that order: 2.9 nM, 97.7%, 28.1 nM and 5.1 nM.
Regarding `COc1cc2nn([C@H]3CC[C@H](CN(C)CCC4CCN(C(=O)c5ccc(Cl)c(N6CCC(=O)NC6=O)c5)CC4)CC3)cc2cc1NC(=O)c1cccc(C(F)(F)F)n1` [Example 49, N-(2-((1r,4r)-4-(((2-(1-(4-chloro-3-(2,4-dioxotetrahydro-pyrimidin-1 (2H)-yl)benzoyl)piperidin-4-yl)ethyl) (methyl)amino)methyl)cyclohexyl)-6-methoxy-2H-inda-zol-5-yl)-6-(tri-fluoromethyl) pyridinecarbox-amide], in experiment [1], half-maximal degradation (DC50) was put at 1.8 nM. The compound further yielded a Dmax in experiment [1] of 99.2%. Besides, the 50% inhibitory concentration (IC50) was determined as 3.4 nM on IRAK4 kinase and 3.7 nM in experiment [2].
The matching figures for `COc1cc2nn([C@H]3CC[C@H](CN(C)C4CCC5(CC4)CCN(C(=O)c4ccc(Cl)c(N6CCC(=O)NC6=O)c4)CC5)CC3)cc2cc1NC(=O)c1cccc(C(F)(F)F)n1` [Example 53, N-(2-((1r,4r)-4-(((3-(4-chloo-3-(2,4-dioxotetrahydro-pyrimidin-1 (2H)-yl)benzoyl)-3-azaspiro [5.5]undec-9-yl) (methyl)amino)methyl)cyclohexyl)-6-methoxy-2H-inda-zol-5-yl)-6-(triflu-oromethyl) pyridinecarbox-amide]: 5.9 nM, 96.3%, 6.3 nM and 2.8 nM.
For `COc1cc2nn([C@H]3CC[C@H](CCN4CCC5(CC4)CCN(C(=O)c4ccc(Cl)c(N6CCC(=O)NC6=O)c4)CC5)CC3)cc2cc1NC(=O)c1cccc(C(F)(F)F)n1` [Example 54, N-(2-((1r,4r)-4-(2-(9-(4-chloro-3-(2,4-dioxo-tetrahydropyrim-idin-1 (2H)-yl)benzoyl)-3,9-diazaspiro[5.5]undec-3-yl)ethyl)cyclohexyl)-6-methoxy-2H-inda-zol-5-yl)-6-(tri-fluoromethyl) pyridinecarbox-amide], in that order: 1.4 nM, 98.9%, 7.5 nM and 2.6 nM.
As for `COc1cc2nn([C@H]3CC[C@H](CN(C)C4CCN(C5CCN(C(=O)c6ccc(Cl)c(N7CCC(=O)NC7=O)c6)CC5)CC4)CC3)cc2cc1NC(=O)c1cccc(C(F)(F)F)n1` [Example 65, N-(2-((1r,4r)-4-(((1′-(4-chloro-3-(2,4-dioxotetrahydro-pyrimidin-1 (2H)-yl)benzoyl)-[1,4′-bi-piperidin]-4-yl) (methyl)amino)methyl)cyclohexyl)-6-methoxy-2H-indazol-5-yl)-6-(trifluoro-methyl) pyridinecarbox-amide], in experiment [1], half-maximal degradation (DC50) was put at 13.4 nM and the Dmax worked out at 98.3%. This compound also gave an IC50 against IRAK4 kinase of 1.6 nM.
Regarding `O=C1CCN(c2cc(C(=O)N3CCC4(CCC(CN5CCC(n6cc7cc(NC(=O)c8cccc(C(F)(F)F)n8)c(OC(F)F)cc7n6)CC5)CC4)CC3)ccc2Cl)C(=O)N1` [Example 66], in experiment [1], it took 16.1 nM to reach half-maximal degradation (DC50) and the maximal degradation (Dmax) turned out to be 95.3%. Also, on IRAK4 kinase, it took 21.4 nM to reach half-maximal inhibition (IC50).
The matching figures for `COc1cc2nn([C@H]3CC[C@H](CN(C)CCCCC4CCN(C(=O)c5ccc(Cl)c(N6CCC(=O)NC6=O)c5)CC4)CC3)cc2cc1NC(=O)c1cccc(C(F)(F)F)n1` [Example 67, N-(2-((1r,4r)-4-(((4-(1-(4-chloro-3-(2,4-dioxotetrahydro-pyrimidin-1 (2H)-yl)benzoyl)piperidin-4-yl)butyl) (methyl)amino)methyl)cyclohexyl)-6-methoxy-2H-indazol-5-yl)-6-(trifluoro-methyl) pyridinecarbox-amide]: 11.5 nM, 99.2% and 5.13 nM.
For `CC(C)(C)C(=O)OCN1C(=O)CCN(c2cc(C(=O)N3CCC4(CCC(CCN5CCC(n6cc7cc(NC(=O)c8cccc(C(F)(F)F)n8)c(C(C)(C)O)cc7n6)CC5)CC4)CC3)ccc2Cl)C1=O` [Example 71, methyl (3-(2-chloro-5-(9-(2-(4-(6-(2-hydroxyprop-2-yl)-5-(6-(trifluoromethyl)pyridinecarboxamido)-2H-indazol-2-yl)piperidin-1-yl)ethyl)-3-azaspiro[5.5]undecyl-3-carbonyl)phenyl)-2,6-dioxotetrahydropyrimidin-1 (2H)-yl) pivalate], in that order: 3.7 nM, 97% and 114 nM.

In general, DC50 refers to the concentration giving 50% degradation. High values mean a less potent degrader, low ones a more potent degrader. What is called Dmax is the greatest extent of degradation seen. The low end stands for shallow degradation, the high end for deep degradation. Usually IC50 stands for the concentration that gives 50% inhibition. A high value points to a need for much substance.
